According to US3959272A, “Aminoalkyl esters of 2-anilino-nicotinic acids” (Societe Anonyme dite: Hexachime, priority 1972, dated 1976):

Experiments:
[1] = Anti-inflammatory activity: oedema provoked by carragenin in the rat; format: in vivo; conditions: po, read-out: percentage inhibition of oedema
Procedure: The method used was as follows.
The anti-inflammatory activity was measured on oedema provoked by carragenin in the rat. Groups of six male rats each weighing 120 to 130 g received the compound under test orally in suspension in "tween 80", half the dose being given 2 hours before and the other half 1/2 hour before the subcutaneous plantar injection of 0.05 ml of a 1 % carragenin solution. The volume of the injected paw was measured by plethysmography at regular intervals. Table 1 below gives the percentage inhibition of the oedema with reference to untreated controls.

[2] = Analgesic activity: Siegmund's test (phenylbenzoquinone painful reactions); format: in vivo; conditions: Mus musculus, po, read-out: percentage inhibition of reactions
Procedure: This activity was measured by Siegmund's test in mice and Randall and Selitto's test in the rat.
Groups of six mice received the compound under test orally 1 hour before intraperitoneal injection of 0.2 ml of an 0.02% of solution of phenylbenzoquinone. The number of painful reactiors from the fifth to the tenth minute after the injection of phenylbenzoquinone was counted.

[3] = Analgesic activity: Randall and Selitto's test (beer yeast paw, pain threshold); format: in vivo, rat
Procedure: This activity was measured by Siegmund's test in mice and Randall and Selitto's test in the rat. Groups of ten male rats each weight 120 to 140 g received by subcutaneous plantar injection 0.05 ml of a 5% aqueous suspension of beer yeast. 2 Hours after this treatment they received the compound under test orally and 1 hour after administration of this compound the paw which had been injected and the contralateral paw were subjected to increasing pressure. The appearance of the pain threshold was noted.

[4] = Escape test; format: in vivo; conditions: Mus musculus, ip, 0.5 h, read-out: Percentage inhibition (number of attempts to escape)
Procedure: Groups of 8 mice were placed in sub groups of 4 in an enclosure from which they could escape by an inclined plane. The number of attempts to escape during 5 minutes were counted half an hour after intraperitoneal administration of the compound under test.

[5] = Antagonism of convulsions produced by cardiazole; format: in vivo; conditions: Mus musculus, ip, read-out: Percentage inhibition of tonic convulsions
Procedure: Groups of 6 mice received the compound under test 30 minutes before introperitoneal injection of 160 mg/kg of cardiazole. The action of the compound under test on the tonic convulsion phase was observed.

[6] = Solubility in water; format: physicochemical; conditions: monohydrochloride

`Cc1cccc(Nc2ncccc2C(=O)OCC(C)(C)N(C)C)c1C` [Example 3, 2-Dimethylamino-2-methylpropyl nixylate] gave an inhibition in vivo at 128 mg/kg ([1]; 128 mg/kg orally) of 0%, an inhibition in vivo at 256 mg/kg ([1]; 256 mg/kg orally) of 72% and an inhibition in vivo at 512 mg/kg ([1]; 512 mg/kg orally) of 67%. The inhibition in vivo at 64 mg/kg ([2]; 64 mg/kg orally) was 31%, the inhibition in vivo at 128 mg/kg ([2]; 128 mg/kg orally) was 49% and the inhibition in vivo at 256 mg/kg ([2]; 256 mg/kg orally) was 75%. The “percentage increase of pain threshold” value ([3]; with yeast, 16 mg/kg orally) was 33%, the “percentage increase of pain threshold” value ([3]; with yeast, 32 mg/kg orally) was 42% and the “percentage increase of pain threshold” value ([3]; with yeast, 64 mg/kg orally) was 66%. The “percentage increase of pain threshold” value ([3]; with yeast, 128 mg/kg orally) was 41%, the “percentage increase of pain threshold” value ([3]; without yeast, 32 mg/kg orally) was 0% and the “percentage increase of pain threshold” value ([3]; without yeast, 64 mg/kg orally) was 2%. The “percentage increase of pain threshold” value ([3]; without yeast, 128 mg/kg orally) was 11%, the “percentage increase of pain threshold” value ([3]; without yeast, 256 mg/kg orally) was 0% and the change in vivo at 8 mg/kg ([4]; 8 mg/kg intraperitoneally) was -16%. For the same compound, the change in vivo at 16 mg/kg ([4]; 16 mg/kg intraperitoneally) was -15%, the change in vivo at 32 mg/kg ([4]; 32 mg/kg intraperitoneally) was -30% and the change in vivo at 64 mg/kg ([4]; 64 mg/kg intraperitoneally) was -67%. The change in vivo at 128 mg/kg ([4]; 128 mg/kg intraperitoneally) was -95%, the inhibition in vivo at 8 mg/kg ([5]; 8 mg/kg intraperitoneally) was 0% and the inhibition in vivo at 16 mg/kg ([5]; 16 mg/kg intraperitoneally) was 5%. It also gave an inhibition in vivo at 32 mg/kg ([5]; 32 mg/kg intraperitoneally) of 16%, an inhibition in vivo at 64 mg/kg ([5]; 64 mg/kg intraperitoneally) of 83% and an inhibition in vivo at 128 mg/kg ([5]; 128 mg/kg intraperitoneally) of 100%. The solubility in water [6] was “soluble in water”.
